According to ChEMBL document CHEMBL4014262, “Phloroglucinol Derivatives with Protein Tyrosine Phosphatase 1B Inhibitory Activities from Eugenia jambolana Seeds” (J Nat Prod, 2017):

Molecular target: T1, Tyrosine-protein phosphatase non-receptor type 1 (Homo sapiens, UniProt P18031)
T1 sequence (P18031 whole entry): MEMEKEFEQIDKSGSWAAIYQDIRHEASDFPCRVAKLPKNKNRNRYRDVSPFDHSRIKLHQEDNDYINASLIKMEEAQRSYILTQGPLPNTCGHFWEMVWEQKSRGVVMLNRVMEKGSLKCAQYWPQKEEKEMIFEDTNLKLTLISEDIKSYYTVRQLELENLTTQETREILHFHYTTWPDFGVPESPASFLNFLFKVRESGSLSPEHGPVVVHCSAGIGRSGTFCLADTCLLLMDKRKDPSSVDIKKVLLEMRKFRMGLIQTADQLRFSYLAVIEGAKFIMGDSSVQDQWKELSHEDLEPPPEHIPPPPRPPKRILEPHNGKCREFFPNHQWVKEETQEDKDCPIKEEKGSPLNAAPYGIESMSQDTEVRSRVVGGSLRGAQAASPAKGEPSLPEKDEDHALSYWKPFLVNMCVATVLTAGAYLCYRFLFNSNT
Assay: Inhibition of GST-tagged PTP1B (1 to 321 residues) (unknown origin) using p-NPP as substrate preincubated for 10 mins followed by substrate addition measured after 30 mins

Point of comparison: CCCC/C=C\CCCCCCCCCC1(O)CC(=O)c2c(O)c(C)c(O)c(C)c2O1 (stereo unspecified), IC50 1800 nM. Against it:
- CC/C=C\C/C=C\C/C=C\CCCCCCCC1(O)CC(=O)c2c(O)c(C)c(O)c(C)c2O1 (stereo unspecified) — within 1.5-fold, 1600 nM
- CCCCC/C=C\C/C=C\CCCCCCCC1(O)CC(=O)c2c(O)c(C)c(O)c(C)c2O1 (stereo unspecified) — 1.5-fold higher, 2700 nM
- CC/C=C\C/C=C\C/C=C\CCCCCCCC1(O)CC(=O)c2c(O)cc(O)cc2O1 (stereo unspecified) — 4-fold lower, 450 nM
- CCCCC/C=C\C/C=C\CCCCCCCC1(O)CC(=O)c2c(O)cc(O)cc2O1 (stereo unspecified) — 4.3-fold lower, 420 nM
- CCCCCCCCCCCCCCCC1(O)CC(=O)c2c(O)cc(O)cc2O1 (stereo unspecified) — within 1.5-fold, 2000 nM
